Assay results published in PubChem BioAssay AID602444 (National Center for Advancing Translational Sciences (NCATS), 2012).

Tested on: mouse liver microsomes without NADPH, percent remaining
Assay: High Content Assay for Compounds that inhibit the Assembly of the Perinucleolar Compartment: Mouse Liver Microsome Stability without NADPH
Settings: active compounds read low
Description: The perinucleolar compartment (PNC) is a non-membrane-bound nuclear subdomain that is associated with but structurally distinct from the nucleolus. The PNC is a heritable trait, in which the number of PNCs per cell in daughter cells often mimics that of their mother cells. The PNC is heterogeneous in shape, is stable through interphase, disassembles during mitosis, and reassembles in early G1. The PNC is concentrated with newly synthesized RNA polymerase III (pol III) RNAs (MRP RNA, RNAse P H1 RNA, hY RNAs[hY1, 2, 5], Alu RNA, and SRP [7SL] RNA) and RNA binding proteins (nucleolin, PTB, CUG-BP, KSRP, Raver1, Raver2, and Rod).
Extensive in vitro studies have shown that the PNC is unique to tumor cells and preferentially forms in tumor cells derived from solid tissues. Examination of cancer cell lines from various origins and malignant capacities has shown that PNC prevalence correlates with the malignancy of tumors and has the potential to be developed as a pan-cancer prognostic marker.
Mouse liver microsomes are generated from lysed mouse liver. Liver microsomes contain many drug metabolizing enzymes, including Cytochome P-450s and flavin-containing monooxygenases. Because drug metabolism is major way of drug clearance, this is an important result. […]
1uM of compound in incubated in mouse liver microsome; the reference compound is ketanserin. […] Samples are analyzed with LC-MS/MS.

Structure (SMILES): N=c1c2c(-c3ccccc3)c(-c3ccccc3)n(Cc3ccccc3)c2ncn1C1CCC(O)CC1 (stereo unspecified)
- percent remaining: 106%
